Source: US8044065B2, “Benzothienopyridines for use as inhibitors of Eg5 kinesin” (Altana Pharma AG, priority 2004, dated 2011)

Key:
[1] = test system: RKOp27 colon cancer cells; assay: Induction of apoptosis, Cell death detection ELISA; type: cell-based; conditions: Homo sapiens, 24 hours, relative to 50 μM cisplatin = 100 cpu, read-out: Apoptosis Induction, -log EC50 (converted)
Description: The induction of apoptosis can be measured by using a Cell death detection ELISA (Roche Biochemicals, Mannheim, Germany). RKOp27 colon cancer cells are seeded into 96 well flat bottom plates at a density of 10000 cells per well in a volume of 50 μl RPMI medium (containing 10% fetal calf serum) per well. 24 hours after seeding the 50 μl each of the compound dilutions in RPMI medium are added into each well of the 96 Well plate. Each compound dilution is tested at least as triplicates. Wells containing untreated control cells are filled with 50 μl RPMI medium containing 1% DMSO. The cells are then incubated with the substances for 24 hours at 37° C. in a humidified atmosphere containing 5% carbon dioxide. As a positive control for the induction of apoptosis, cells are treated with 50 μM Cisplatin (Gry Pharmaceuticals, Kirchzarten, Germany). Medium is then removed and the cells are lysed in 200 μl lysis buffer. After centrifugation as described by the manufacturer, 10 μl of cell lysate is processed as described in the protocol. The degree of apoptosis is calculated as follows: The absorbance at 405 nm obtained with lysates from cells treated with 50 μM cisplatin is set as 100 cpu (cisplatin units), while an absorbance at 405 nm of 0.0 was set as 0.0 cpu. The degree of apoptosis is expressed as cpu in relation to the value of 100 cpu reached with the lysates obtained from cells treated with 50 μM cisplatin. The corresponding EC50 values of the compounds for apoptosis inducing activity are determined from the concentration-effect curves.

[2] = test system: RKO colon adenocarcinoma cells (RKOp27), arrested by p27Kip1 induced by Ponasterone A; assay: Alamar Blue cell viability assay, RKO p27 induced by Ponasterone A (arrested cells); type: cell-based; conditions: Homo sapiens, RKO p27 induced (10 μM Ponasterone A), 72 hours, read-out: Anti-proliferative/cytotoxic activity, -log IC50, RKO p27 induced (converted)
Description: To determine the cell cycle specific mode of action, subclones of RKO colon adenocarcinoma cells (RKOp27 as described by Schmidt et al. in Oncogene 19, 2423-2429; 2000) are seeded into 96 well flat bottom plates at a density of 16000 cells per well in a volume of 50 μl per well in DMEM growth medium with 10% FCS containing 10 μM Ponasterone A. 24 hours after seeding the 50 μl each of the compound dilutions in DMEM medium are added into each well of the 96-well plate. Each compound dilution is tested as quadruplicates. Wells containing untreated control cells are filled with 50 μl DMEM medium containing 1% DMSO. The cells are then incubated with the substances for 72 hours at 37° C. in a humidified atmosphere containing 5% carbon dioxide. To determine the viability of the cells, 10 μl of an Alamar Blue solution (Biosource) are added and the fluorescence is measured at an extinction of 544 nm and an emission of 590 nm. For the calculation of the cell viability the emission value from untreated cells is set as 100% viability and the emission rates of treated cells are set in relation to the values of untreated cells. Viabilities are expressed as % values. Viability is compared of proliferating cells grown in the absence of the inducer Ponasterone A, versus viability of cells arrested by the expression of ectopic p27Kip1 induced by Ponasterone A.

[3] = test system: RKO human colon adenocarcinoma cells (RKOp27), uninduced; assay: Alamar Blue cell viability assay, RKO p27 uninduced (proliferating cells); type: cell-based; conditions: 72 hours, read-out: Anti-proliferative/cytotoxic activity, -log IC50, RKO p27 uninduced (converted)
Description: The anti-proliferative/cytotoxic activity of the compounds described herein can be tested on subclones of RKO human colon adenocarcinoma cells (Schmidt et al., Oncogene 19, 2423-2429; 2000) using the Alamar Blue cell viability assay (described in O'Brien et al. Eur J Biochem 267, 5421-5426, 2000). The compounds are dissolved as 10 mM solutions in DMSO and subsequently diluted in semi-logarithmic steps. DMSO dilutions are further diluted 1:100 into Dulbecco's modified Eagle's medium (DMEM) containing 10% fetal calf serum to a final concentration twice as much as the final concentration in the test. RKO subclones are seeded into 96 well flat bottom plates at a density of 4000 cells per well in a volume of 50 μl per well. 24 hours after seeding the 50 μl each of the compound dilutions in DMEM medium are added into each well of the 96 well plate. Each compound dilution is tested as quadruplicates. Wells containing untreated control cells are filled with 50 μl DMEM medium containing 1% DMSO. […] To determine the viability of the cells, 10 μl of an Alamar Blue solution (Biosource) are added and the fluorescence is measured at an extinction of 544 nm and an emission of 590 nm. […] Viabilities are expressed as % values.
The corresponding IC50 values of the compounds for anti-proliferative/cytotoxic activity are determined from the concentration-effect curves.
To determine the cell cycle specific mode of action, subclones of RKO colon adenocarcinoma cells (RKOp27 as described by Schmidt et al. in Oncogene 19, 2423-2429; 2000) are seeded into 96 well flat bottom plates at a density of 16000 cells per well in a volume of 50 μl per well in DMEM growth medium with 10% FCS containing 10 μM Ponasterone A. 24 hours after seeding the 50 μl each of the compound dilutions in DMEM medium are added into each well of the 96-well plate. […] To determine the viability of the cells, 10 μl of an Alamar Blue solution (Biosource) are added and the fluorescence is measured at an extinction of 544 nm and an emission of 590 nm. […] Viabilities are expressed as % values. […]

[4] = test system: NCl-H460 non-small cell lung cancer cells; assay: Mitotic spindle malformation by confocal laser scanning microscopy; type: cell-based; conditions: 1 μM, 24 hours, anti-alpha tubulin and Hoechst 33342 staining
Description: Experimental perturbation of Eg5 function causes a characteristic malformation of the mitotic spindle, which can be examined by confocal laser scanning microscopy. NCl-H460 non-small cell lung cancer cells are grown overnight on glass cover slips (Nunc™ Lab-Tek™ Chamber Slides) in 1800 μl DMEM medium containing 10% fetal calf serum. The test compounds are dissolved as 10 mM solutions in DMSO. Appropriate DMSO dilutions of the test compounds are further diluted 1:10 into DMEM medium containing 10% fetal calf serum to a final concentration ten times as much as the final concentration in the test. 24 hours after seeding, 200 μl of the compound dilutions in DMEM medium are added into each well of the cover slip. As a control, 200 μl DMEM medium containing 10% DMSO are added. 24 hours after incubation with the test compounds, the cells are washed with PBS, and fixed with 3.7% formaldehyde in H2O for 20 min. at 37° C. Subsequently, cells are washed with PBS and incubated with 0.1% Triton X-100 in a buffer containing 1.471 mM KH2PO4, 8.504 mM Na2HPO4, 137 mM NaCl, 1.325 mM CaCl2, 2.685 mM KCl, 0.542 mM MgCl2, pH 7.2 for 15 min. at room temperature. […]

Row | SMILES | EC50 [1] [µM] | IC50 [2] [µM] | IC50 [3] [µM] | melting point [°C] | Mitotic arrest / mitotic spindle phenotype [4]
1 | CN1C(=O)N2C(c3cccc(O)c3)c3[nH]c4ccccc4c3CC2(C)C1=O (racemic) [Example 1, (±)-(3aSR,10RS)-10-(3-Hydroxy-phenyl)-2,3a-dimethyl-3a,4,9,10-tetrahydro-2,9,10a-triaza-cyclopenty[b]fluorene-1,3-dione] | ≤ 2.51 | ≥ 100 | ≤ 0.631 | 299 to 305 | significant enrichment of cells arrested in mitosis
2 | CN1C(=O)N2[C@H](c3cccc(O)c3)c3sc4ccccc4c3C[C@@]2(C)C1=O (racemic) [Example 5, (3aSR,10RS)-10-(3-Hydroxy-phenyl)-2,3a-dimethyl-4,10-dihydro-3aH-9-thia-2,10a-diaza-cyclopenta[b]fluorene-1,3-dione] | ≤ 2.51 |  |  |  | 
3 | CN1C(=O)N2[C@H](c3cccc(O)c3)c3[nH]c4ccccc4c3C[C@@]2(C)C1=O [Example 2, (3aS,10R)-10-(3-Hydroxy-phenyl)-2,3a-dimethyl-3a,4,9,10-tetrahydro-2,9,10a-triaza-cyclopenty[b]fluorene-1,3-dione] | ≤ 2.51 | ≥ 100 | ≤ 0.631 |  | 
4 | CN1C(=O)C2Cc3c(sc4ccccc34)C(c3cccc(O)c3)N2C1=O [Example 3, (3aS,10R)-10-(3-Hydroxy-phenyl)-2-methyl-4,10-dihydro-3aH-9-thia-2,10-diaza-cyclopenta[b]fluorene-1,3-dione] | ≤ 2.51 | ≥ 100 | ≤ 0.631 | 213.3 to 216.4 | significant enrichment of cells arrested in mitosis
